In patent US20160015700A1, “4-CYANO-N-(2-(4,4-DIMETHYLCYCLOHEX-1-EN-1-YL)-6-(2,2,6,6-TETRAMETHYLTETRAHYDRO-2H-PYRAN-4-YL)PYRIDIN-3-YL)-1H-IMIDAZOLE-2-CARBOXAMIDE FOR THE TREATMENT OF HODGKIN'S LYMPHOMA” (JANSSEN PHARMACEUTICA NV, priority 2013, published 2016):

Tested on: classical Hodgkin's Lymphoma patient
Experiment: Case study: treatment of a classical Hodgkin's Lymphoma patient, response by CT/MRI scan and PET scan (Cheson criteria)
Assay type: in vivo, human
Conditions: 150 mg orally 1 time a day, Cheson 2007 criteria
Protocol: A classical Hodgkin's Lymphoma patient, diagnosed with Stage II in Hodgkin Lymphoma in January 2006, and previously treated with radiotherapy and three different regimens of chemotherapy, including an autologous stem cell transplantation was treated with 150 mg of the compound of formula (I), administered orally 1 time a day. In addition to the compound of formula (I), the patient was taking the following medications and dosages: (a) DEKRISTOL (cholecalciferol), 20000 I.U. QOD for vitamin deficiency, (b) methylphenidate hydrochloride, 20 mg DAILY for fatigue, (c) ibuprofen, 600 mg PRN for back pain, and (d) VALORON N (tilidine) 50 IN 20 DROPS PRN for back pain.
Response to treatment was evaluated by tumor assessments using CT/MRI scan and PET scan, resulting in an individual response for each technique. In addition, an overall response evaluation was completed, taking into account both scan results. Response evaluations were completed according to the criteria as set forth in CHESON, B. D., et al., J. Clin. Oncology, 2007, pp579-586, Vol. 25(5).

In the case of `CC1(C)CC=C(c2nc(C3CC(C)(C)OC(C)(C)C3)ccc2NC(=O)c2nc(C#N)c[nH]2)CC1` [compound of formula (I), 4-cyano-N-(2-(4,4-dimethylcyclohex-1-en-1-yl)-6-(2,2,6,6-tetramethyltetrahydro-2H-pyran-4-yl)pyridin-3-yl)-1H-imidazole-2-carboxamide], the “response status at later follow-up” value (as of 13 Mar. 2013) was “still in complete response” and the “overall response to treatment” value (evaluated after 121 days of treatment, previously treated classical Hodgkin's Lymphoma patient) was “complete response to treatment”.
